According to patent publication US9351965B2, “Indazole derivatives useful as ERK inhibitors” (Merck Sharp & Dohme Corp., priority 2010, dated 2016):
pIC50: −log10 of the molar value.

Molecular target: fully phosphorylated, active Mouse ERK2 protein (Mus musculus (Mouse), UniProt P63085)
Assay: Active ERK2 (aERK) IMAP assay
Type: biochemical
Conditions: IMAP fluorescence polarization; 30 μM ATP; 30 minute pre-incubation

Sequence of fully phosphorylated, active Mouse ERK2 protein (P63085 whole entry): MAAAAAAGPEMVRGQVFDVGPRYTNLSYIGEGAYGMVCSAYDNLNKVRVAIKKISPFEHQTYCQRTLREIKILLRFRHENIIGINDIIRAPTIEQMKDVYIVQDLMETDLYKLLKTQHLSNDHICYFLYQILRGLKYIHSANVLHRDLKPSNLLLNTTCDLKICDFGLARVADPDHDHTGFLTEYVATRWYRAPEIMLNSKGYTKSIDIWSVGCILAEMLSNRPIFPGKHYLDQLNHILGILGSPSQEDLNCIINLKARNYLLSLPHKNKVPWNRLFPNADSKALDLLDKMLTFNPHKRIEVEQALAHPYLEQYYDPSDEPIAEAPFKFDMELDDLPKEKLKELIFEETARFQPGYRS

**Q.** Cc1cc(-c2n[nH]c3ccc(C(=O)NC4CCCC(CO)(Cc5ccc(F)cc5F)C4)cc23)ccn1 (centres unmarked) [compound 134, N-[3-[(2,4-difluorophenyl)methyl]-3-(hydroxymethyl)cyclohexyl]-3-(2-methyl-4-pyridinyl)-1H-indazole-5-carboxamide] was tested. Which pIC50 did it give?
**A.** 6.36

**Q.** How did the pIC50 turn out when Cc1cc(-c2n[nH]c3ccc(C(=O)NC4CCCC(CO)(Cc5ccc(F)cc5)C4)cc23)ccn1 (centres unmarked) [compound 135, N-[3-[(4-fluorophenyl)methyl]-3-(hydroxymethyl)cyclohexyl]-3-(2-methyl-4-pyridinyl)-1H-indazole-5-carboxamide] was run?
**A.** 6.45

**Q.** Cc1cc(-c2n[nH]c3ccc(C(=O)NC4CCCC(Cc5ccc(F)cc5)(C(=O)O)C4)cc23)ccn1 (centres unmarked) [compound 136, 1-[(4-fluorophenyl)methyl]-3-[[[3-(2-methyl-4-pyridinyl)-1H-indazol-5-yl]carbonyl]amino]cyclo-hexanecarboxylic acid] was tested. Which pIC50 did it give?
**A.** 6.52

**Q.** How did the pIC50 turn out when Cc1cc(-c2n[nH]c3ccc(C(=O)NC4CCCC(CO)(Cc5c(F)cccc5F)C4)cc23)ccn1 (centres unmarked) [compound 137, N-[3-[(2,6-difluorophenyl)methyl]-3-(hydroxymethyl)cyclohexyl]-3-(2-methyl-4-pyridinyl)-1H-indazole-5-carboxamide] was run?
**A.** 6.35

**Q.** How did the pIC50 turn out when Cc1cc(-c2n[nH]c3ccc(C(=O)NC4CCC(CO)(Cc5ccccc5F)C4)cc23)ccn1 (centres unmarked) [compound 138, N-[3-[(2-fluorophenyl)methyl]-3-(hydroxymethyl)cyclopentyl]-3-(2-methyl-4-pyridinyl)-1H-indazole-5-carboxamide] was run?
**A.** 7.72

**Q.** With Cc1cc(-c2n[nH]c3ccc(C(=O)NC4CCC(CO)(Cc5ccccc5F)C4)cc23)ccn1 (centres unmarked) [compound 139, N-[3-[(2-fluorophenyl)methyl]-3-(hydroxymethyl)cyclopentyl]-3-(2-methyl-4-pyridinyl)-1H-indazole-5-carboxamide] as the molecule, how does the pIC50 read?
**A.** 7.19

**Q.** Cc1cc(-c2n[nH]c3ccc(C(=O)NN4CCCC(Oc5ccccc5Cl)C4)cc23)ccn1 (centres unmarked) [compound 140, N-[3-(2-chlorophenoxy)-1-piperidinyl]-3-(2-methyl-4-pyridinyl)-1H-indazole-5-carboxamide] was tested. Which pIC50 did it give?
**A.** 7.50

**Q.** How did the pIC50 turn out when Cc1cc(-c2n[nH]c3ccc(C(=O)NN4CCCC(Oc5ccccc5Cl)C4)cc23)ccn1 (centres unmarked) [compound 141, N-[3-(2-chlorophenoxy)-1-piperidinyl]-3-(2-methyl-4-pyridinyl)-1H-indazole-5-carboxamide] was run?
**A.** 7.07

**Q.** With Cc1cc(-c2n[nH]c3ccc(C(=O)NN4CCCC(Oc5ccccc5F)C4)cc23)ccn1 (centres unmarked) [compound 142, N-[3-(2-fluorophenoxy)-1-piperidinyl]-3-(2-methyl-4-pyridinyl)-1H-indazole-5-carboxamide] as the molecule, how does the pIC50 read?
**A.** 6.82

**Q.** With Cc1cc(-c2n[nH]c3ccc(C(=O)NN4CCCC(Oc5ccccc5F)C4)cc23)ccn1 (centres unmarked) [compound 143, N-[3-(2-fluorophenoxy)-1-piperidinyl]-3-(2-methyl-4-pyridinyl)-1H-indazole-5-carboxamide] as the molecule, how does the pIC50 read?
**A.** 7.57

**Q.** CC(C)Oc1ccc(-c2n[nH]c3ccc(C(=O)NN4CCCC4CCc4ccccc4)cc23)cn1 (centres unmarked) [compound 144, 3-[6-(1-methylethoxy)-3-pyridinyl]-N-[2-(2-phenylethyl)-1-pyrrolidinyl]-1H-indazole-5-carboxamide] was tested. Which pIC50 did it give?
**A.** 6.30

**Q.** Cc1cc(-c2n[nH]c3ccc(C(=O)NN4CCCC4CCc4ccccc4)cc23)ccn1 (centres unmarked) [compound 145, 3-(2-methyl-4-pyridinyl)-N-[2-(2-phenylethyl)-1-pynolidinyl]-1H-indazole-5-carboxamide] was tested. Which pIC50 did it give?
**A.** 7.54

**Q.** CC(C)Oc1cc(-c2n[nH]c3ccc(C(=O)NN4CCCC4CCc4ccccc4)cc23)ccn1 (centres unmarked) [compound 146, 3-[2-(1-methylethoxy)-4-pyridinyl]-N-[2-(2-phenylethyl)-1-pyrrolidinyl]-1H-indazole-5-carboxamide] was tested. Which pIC50 did it give?
**A.** 6.00

**Q.** How did the pIC50 turn out when Cc1cc(-c2n[nH]c3ccc(C(=O)NN4CCCC(CO)(Oc5cc(F)ccc5F)C4)cc23)ccn1 (centres unmarked) [compound 147, N-[3-(2,5-difluorophenoxy)-3-(hydroxymethyl)-1-piperidinyl]-3-(2-methyl-4-pyridinyl)-1H-indazole-5-carboxamide] was run?
**A.** 6.41

**Q.** With Cc1cc(-c2n[nH]c3ccc(C(=O)NN4CCCC(CO)(Oc5ccc(F)cc5)C4)cc23)ccn1 (centres unmarked) [compound 148, N-[3-(4-fluorophenoxy)-3-(hydroxymethyl)-1-piperidinyl]-3-(2-methyl-4-pyridinyl)-1H-indazole-5-carboxamide] as the molecule, how does the pIC50 read?
**A.** 6.35

**Q.** With COCC1(Cc2ccccc2F)CCCN(NC(=O)c2ccc3[nH]nc(-c4ccnc(C)c4)c3c2)C1 (centres unmarked) [compound 149, N-[3-[(2-fluorophenyl)methyl]-3-(methoxymethyl)-1-piperidinyl]-3-(2-methyl-4-pyridinyl)-1H-indazole-5-carboxamide] as the molecule, how does the pIC50 read?
**A.** 6.03

**Q.** Cc1cc(-c2n[nH]c3ccc(C(=O)NN4CCC(CO)(Cc5ccccc5F)C4)cc23)ccn1 (centres unmarked) [compound 150, N-[3-[(2-fluorophenyl)methyl]-3-(hydroxymethyl)-1-pyrrolidinyl]-3-(2-methyl-4-pyridinyl)-1H-indazole-5-carboxamide] was tested. Which pIC50 did it give?
**A.** 7.49

**Q.** With Cc1cc(-c2n[nH]c3ccc(C(=O)NN4CCCC(CO)(Cc5ccccc5F)C4)cc23)ccn1 (centres unmarked) [compound 151, N-[3-[(2-fluorophenyl)methyl]-3-(hydroxymethyl)-1-piperidinyl]-3-(2-methyl-4-pyridinyl)-1H-indazole-5-carboxamide] as the molecule, how does the pIC50 read?
**A.** 6.71

**Q.** With Cc1cc(-c2n[nH]c3ccc(C(=O)NC4CCCC(N)(Cc5ccccc5F)C4)cc23)ccn1 (centres unmarked) [compound 152, N-[3-amino-3-[(2-fluorophenyl)methyl]cyclohexyl]-3-(2-methyl-4-pyridinyl)-1H-indazole-5-carboxamide] as the molecule, how does the pIC50 read?
**A.** 6.29

**Q.** Cc1cc(-c2n[nH]c3ccc(C(=O)NC4CCCC(Cc5ccccc5F)(NC=O)C4)cc23)ccn1 (centres unmarked) [compound 153, N-[3-[(2-fluorophenyl)methyl]-3-(formylamino)cyclohexyl]-3-(2-methyl-4-pyridinyl)-1H-indazole-5-carboxamide] was tested. Which pIC50 did it give?
**A.** 6.79
